For series [1], the system named is H460. Kind of series: Alamar blue cytotoxicity assay on H460 cancer cells. It counts as cell-based, human. The note with it: for IC50: Homo sapiens, NCI-H460, alamar blue, 48 hours treatment. The method, then:
(§1) The endothelial cells (human endothelial-like cells, Eahy926) and 4 cancer cell lines (MCF-7, H460, HT-29, and CEM) were derived from the American Type Culture Collection (ATCC) and were maintained in DMEM or RPMI medium (Life Technologies) supplemented with 2 mM L-glutamine and 10% heat-inactivated fetal bovine serum (FBS) (Life Technologies) under standard culture conditions. The cell viability and cell number were determined by the Trypan Blue dye-exclusion method.
(§2) The alamar blue (AB) assay (dye purchased from Biosource International, Nivelles, Belgium) was used to estimate cell viability in accordance with procedures previously described by Fatokun et al (Bone (2006) 39, 542-551). Briefly, cells were treated with various concentration of each of the test compounds (e.g., compounds of example 1.1) at 37° C. for 48 hours, and the medium in each well was then aspirated at the end of the treatment, 100 μL of fresh medium containing 10% v/v AB was then added to the control and the treated wells, respectively. Plates were then incubated at 37° C. for 6 hour prior to measuring the absorbance at 570 nm and at 600 nm wavelengths using a spectrophotometric plate reader (DYNEX Technologies, USA). Experimental data were normalized to control values. CH-205-A, K, L, O, and -P were effective on MCF-7 cells; CH-205-A, H, K, L, O, and -P were effective on H460 cells; CH-205-A and -P were effective on HT-29 cells and CH-205-A, H, N, and -O were effective on CEM cells.

The test system of series [2] is HT-29. Kind of series: Alamar blue cytotoxicity assay on HT-29 cancer cells. The note with it: for IC50: Homo sapiens, HT-29, alamar blue, 48 hours treatment. Format: cell-based. The protocol:
as §1, §2
For orientation: Resazurin is reduced to fluorescent resorufin, in cell work by metabolically active cells.

The nature of series [3]: MTT cell viability of endothelial cells (ECs). Format: cell-based, human. To be noted: human, column head prints none, read-out: Cell viability IC50 (cytotoxicity concentration on ECs). The protocol: as §1
(§3) Anti-angiogenic effects of CH-205 compounds were estimated by their inhibition on the growth of endothelial cells. The toxicity of CH-205 compounds to endothelial cells was estimated using MTT (3-(4,5-dimethy;thiazol-2-yl)-2,5-diphenyltetrazolium bromide, a tetrazole) assay. MTT assay is a standard colorimetric assay (an assay which measures changes in color) for measuring the activity of enzymes that reduce yellow MTT to formazan, giving a purple color. It is also used to determine cytotoxity of potential medicinal agents and other toxic materials, since those agents would result in cell toxicity and therefore metabolic dysfunction and therefore decreased performance in the assay. The cytotoxity concentrations of the CH-205 compounds measured in MTT test are all over 20 μM (Table 2), however, their effects on angiogenesis inhibition are in nM range, indicating the safety of these compounds (Table 3).

For series [4], the system named is endothelial cells (human endothelial-like cells, Eahy926). Nature of the series: MTT cell viability of endothelial cells (ECs). It counts as cell-based. The protocol:
as §1, §3

Series [5] has as its system MCF-7. Kind of series: Alamar blue cytotoxicity assay on MCF-7 cancer cells. To be noted: for IC50: Homo sapiens, MCF7, alamar blue, 48 hours treatment. Format: cell-based. The protocol: as §1, §2
Series [6] relates to CEM. Nature of the series: Alamar blue cytotoxicity assay on CEM cancer cells. Format: cell-based. The note with it: for IC50: Homo sapiens, CCRF-CEM, alamar blue, 48 hours treatment. The method, then: as §1, §2
The subject of series [7] is endothelial cells (ECs). Kind of series: In vitro antiangiogenesis on ECs (inhibition of endothelial cell growth). The note with it: Homo sapiens, read-out: In vitro antiangiogenesis IC50. Format: cell-based. The protocol:
as §1, §3

The subject of series [8] is H460 human lung cancer tumor xenograft.
Method: The established, transplantable, 5×10^6/200 μL H460 tumor cells were prepared in RPMI medium. The 200 μL of cell suspension was injected subcutaneously into right flank area of each mouse. The mice were randomized into vehicle control and drug treatment groups of four-six animals each when xenografts were palpable with a tumor size of 40 mm^3. Adminitration of the lead compounds or vehicle began on day 15 when the median tumor size was ranged from 75 to 80 mm^3. Tumor-bearing animals were randomized (five per group) prior to treatment. The candidate test drugs were intraperitoneal (IP) administered into with optimal dosage once every other day (48 hr apart) for 7 or 10 times. […] Solvent vehicle and cisplatin (5 mg/kg) were used to administrate, respectively, as io negative and positive controls. Two days after last administration of tested compounds, the animals were sacrificed. The tumor dimensions were measured every other day using a linear caliper and tumor volume is calculated using the equation V (mm^3)=a×b^2/2, where a is the largest diameter and b is the smallest diameter. Body weights are also recorded once weekly. Tumor is growth inhibition ratio (TGI) is calculated using the equation TGI=(1−(the mean treated tumor mass/mean control tumor mass))*100%.

Where two headings read alike, the source gives them in different places.

As to `COc1cc(O)c(C(=O)O[C@@H]2C[C@@]3(C)C2=C(C=O)C=C2CC(C)(C)C[C@@H]23)c(C)c1Cl` [CH-205-A], in series [1], the “effective on H460 cells” value is “effective” and the IC50 amounted to 5.5 µM. In addition, in series [2], the “effective on HT-29 cells” value is “effective” and the IC50 was 4.6 µM. In series [3] (Eahy926 endothelial-like cells), the IC50 was 24.1 µM. Further, in series [4], the “Cell viability (% of control) 1 μM” value is listed as 101.4 % of control, the “Cell viability (% of control) 10 μM” value was 87.9 % of control, the “Cell viability (% of control) 50 μM” value was 17.7 % of control and the “Cell viability (% of control) 100 μM” value is 8.4 % of control. Further, in series [4], the “Cell viability (% of control) 250 μM” value was 7.1 % of control and the “Cell viability (% of control) 500 μM” value is 7.9 % of control. Also, in series [5], the “effective on MCF-7 cells” value is recorded as “effective” and the IC50 was 4.8 µM. In series [6], the “effective on CEM cells” value is “effective” and the IC50 was determined as 5.8 µM. The IC50 in series [7] was 40.3 nM.
Take `COc1cc(O)c(C(=O)O[C@@H]2C[C@]3(C)C4[C@@H](O)C(C)(C)C[C@@]4(O)C=C(C=O)[C@]23O)c(C)c1Cl` (stereo partly drawn) [CH-205-E, (2R,2a6,4aR,7R,7bR)-3-formyl-2,2a,4a,5,6,7,7a,7b-octahydro-2a,4a,7-trihydroxy-6,6,7b-trimethyl-1H-cyclobuta[e]inden-2-yl 3-chloro-6-hyd roxy-4-methoxy-2-methylbenzoate]: the IC50 in series [1] was over 100 µM. In series [2], this compound had an IC50 of 85.6 µM. In addition, in series [3] (Eahy926 endothelial-like cells), the IC50 came to 220 µM. Besides, in series [4], the “Cell viability (% of control) 1 μM” value is 93.5 % of control, the “Cell viability (% of control) 10 μM” value was 98.6 % of control, the “Cell viability (% of control) 50 μM” value is reported as 80.8 % of control and the “Cell viability (% of control) 100 μM” value was 63.7 % of control. For the same compound, in series [4], the “Cell viability (% of control) 250 μM” value is listed as 32.1 % of control and the “Cell viability (% of control) 500 μM” value is reported as 7.4 % of control. In series [5], this compound showed an IC50 of over 100 µM. Besides, in series [6], the IC50 came out at 49.6 µM. The IC50 in series [7] (ECs) turned out to be 23 nM.
Consider `Cc1cc(O)cc(O)c1C(=O)O[C@@H]1C[C@]2(C)C3CC(C)(C)CC3C=C(CO)[C@]12O` (stereo partly drawn) [CH-205-L, (2R,2aS,7bR)-2,2a,4a,5,6,7,7a,7b-octahydro-2a-hydroxy-3-(hydroxymethyl)-6,6,7b-trimethyl-1H-cyclobuta[e]inden-2-yl 2,4-dihydroxy-6-methylbenzoate], for which, in series [1], the “effective on H460 cells” value is given as “effective” and the IC50 turned out to be 5.1 µM. Besides, the IC50 in series [2] is 58.4 µM. Besides, in series [3] (Eahy926 endothelial-like cells), the IC50 was determined as 21.1 µM. Further, in series [4], the “Cell viability (% of control) 1 μM” value was 93.2 % of control, the “Cell viability (% of control) 10 μM” value was 118.8 % of control, the “Cell viability (% of control) 50 μM” value is 6.5 % of control and the “Cell viability (% of control) 100 μM” value is on record as 6.4 % of control. Also, in series [4], the “Cell viability (% of control) 250 μM” value is reported as 6.5 % of control and the “Cell viability (% of control) 500 μM” value is 9.8 % of control. In series [5], the “effective on MCF-7 cells” value is “effective” and the IC50 stood at 8.3 µM. In series [6], the IC50 came out at 41.2 µM. In addition, in series [7] (ECs), the IC50 amounted to 1.1 nM.
In turn, `Cc1c(Cl)c(O)cc(O)c1C(=O)O[C@@H]1C[C@]2(C)[C@H]3CC(C)(C)C[C@@]3(O)C=C(C=O)[C@]12O` [CH-205-N, (2R,2aS,4aR,7aR,7bR)-3-formyl-2,2a,4a,5,6,7,7a,7b-octahydro-2a,4a-dihydroxy-6,6,7b-trimethyl-1H-cyclobuta[e]inden-2-yl 3-chloro-4,6-dihydroxy-2-methylbenzoate] showed an IC50 in series [1] of over 100 µM. The same compound registered an IC50 in series [2] of 32.1 µM. In series [3] (Eahy926 endothelial-like cells), the IC50 turned out to be 270 µM. Moreover, in series [4], the “Cell viability (% of control) 1 μM” value is 96.5 % of control, the “Cell viability (% of control) 10 μM” value is reported as 94.1 % of control, the “Cell viability (% of control) 50 μM” value is recorded as 96.5 % of control and the “Cell viability (% of control) 100 μM” value is 85.1 % of control. In addition, in series [4], the “Cell viability (% of control) 250 μM” value is 55.2 % of control and the “Cell viability (% of control) 500 μM” value is on record as 7.6 % of control. The compound further yielded an IC50 in series [5] of over 100 µM. For the same compound, in series [6], the “effective on CEM cells” value is “effective” and the IC50 is 5.5 µM. The IC50 in series [7] (ECs) is 3.5 nM.
`COc1cc(O)c(C(=O)O[C@@H]2C[C@]3(C)C4C(C=C(C=O)[C@]23O)CC(C)(C)[C@@H]4O)c(C)c1Cl` (stereo partly drawn) [CH-205-P, (2R,2aS,7R,7bR)-3-formyl-2,2a,4a,5,6,7,7a,7b-octahydro-2a,7-dihydroxy-6,6,7b-trimethyl-1H-cyclobuta[e]inden-2-yl 3-chloro-6-hydroxy-4-methoxy-2-methylbenzoate]: in series [1], the “effective on H460 cells” value is “effective” and the IC50 is 5.7 µM. In series [2], the “effective on HT-29 cells” value is given as “effective” and the IC50 is 34.7 µM. Also, in series [3] (Eahy926 endothelial-like cells), the IC50 stood at 20.7 µM. For the same compound, in series [4], the “Cell viability (% of control) 1 μM” value is given as 105.1 % of control, the “Cell viability (% of control) 10 μM” value is recorded as 78.5 % of control, the “Cell viability (% of control) 50 μM” value is on record as 6.8 % of control and the “Cell viability (% of control) 100 μM” value is recorded as 9.8 % of control. Moreover, in series [4], the “Cell viability (% of control) 250 μM” value is listed as 6.8 % of control and the “Cell viability (% of control) 500 μM” value is recorded as 9.6 % of control. In series [5], the “effective on MCF-7 cells” value is on record as “effective” and the IC50 was 4.4 µM. In series [6], this compound gave an IC50 of 44.6 µM. The IC50 in series [7] (ECs) was determined as 1.8 nM.
Consider `Cc1c(Cl)c(O)cc(O)c1C(=O)O[C@@H]1C[C@]2(C)C3[C@@H](O)C(C)(C)C[C@@]3(O)C=C(C=O)[C@]12O` (stereo partly drawn) [CH-205-Q, (2R,2aS,4aR,7R,7bR)-3-formyl-2,2a,4a,5,6,7,7a,7b-octahydro-2a,4a,7-trihydroxy-6,6,7b-trimethyl-1H-cyclobuta[e]inden-2-yl 3-chloro-4,6-dihydroxy-2-methyl benzoate], for which the IC50 is over 100 µM in series [1]; over 100 µM in series [2]; over 500 µM in series [3]; over 100 µM in series [5]; over 100 µM in series [6]; 1 nM in series [7]. Moreover, the “Cell viability (% of control) 1 μM” value in series [4] is listed as 104.7 % of control. For the same compound, in series [4], the “Cell viability (% of control) 10 μM” value was 98.9 % of control. Besides, the “Cell viability (% of control) 50 μM” value in series [4] is given as 105.5 % of control. In addition, the “Cell viability (% of control) 100 μM” value in series [4] is on record as 108.6 % of control. In series [4], the “Cell viability (% of control) 250 μM” value is 100.2 % of control. Besides, in series [4], the “Cell viability (% of control) 500 μM” value is recorded as 74.1 % of control.
As for `N.N.[Cl][Pt][Cl]` [cisplatin, reference compound], the “Tumor growth inhibition ratio (TGI)” value in series [8] (CH-205-K study, positive control 5 mg/kg (fifth value of the sentence)) was found to be 77.78%; in series [8] (CH-205-O study, positive control 5 mg/kg), 82%.

These data come from patent publication US20110262561A1, “Protoilludance Norsesquiterpenoid Esters and Uses Thereof” (NATIONAL RESEARCH INSTITUTE OF CHINESE MEDICINE, priority 2010, published 2011).
